Experiment [1] has as its target T1, Non-receptor tyrosine-protein kinase TNK1 (Homo sapiens) (UniProt Q13470).
T1 sequence (whole entry): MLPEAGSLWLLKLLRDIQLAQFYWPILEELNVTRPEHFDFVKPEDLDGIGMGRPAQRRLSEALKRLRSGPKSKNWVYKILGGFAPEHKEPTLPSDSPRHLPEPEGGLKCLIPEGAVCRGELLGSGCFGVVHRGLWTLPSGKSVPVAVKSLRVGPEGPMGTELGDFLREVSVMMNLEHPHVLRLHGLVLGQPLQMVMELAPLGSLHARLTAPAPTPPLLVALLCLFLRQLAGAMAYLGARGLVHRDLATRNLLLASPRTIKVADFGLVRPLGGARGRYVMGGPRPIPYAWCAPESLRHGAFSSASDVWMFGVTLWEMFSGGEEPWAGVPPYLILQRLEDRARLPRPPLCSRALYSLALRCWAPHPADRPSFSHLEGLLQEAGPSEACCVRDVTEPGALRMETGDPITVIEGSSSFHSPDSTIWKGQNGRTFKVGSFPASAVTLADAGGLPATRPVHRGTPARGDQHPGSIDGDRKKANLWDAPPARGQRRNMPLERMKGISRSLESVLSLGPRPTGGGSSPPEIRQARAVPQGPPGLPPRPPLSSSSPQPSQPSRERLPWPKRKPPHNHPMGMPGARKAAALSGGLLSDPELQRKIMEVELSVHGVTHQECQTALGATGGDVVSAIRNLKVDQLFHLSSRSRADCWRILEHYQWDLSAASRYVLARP
Description: Selectivity interaction (Kinase panel (Carna Biosciences)) EUB0001542aTs TNK1. Conditions: at 1 µM.

Experiment [2] concerns the target Cannabinoid receptor 2 (Homo sapiens) (UniProt P34972). Description: Selectivity interaction (Panel of non-epigenetic targets (kinases, GPCRs, ion channels, and transporters, Eurofins) ) EUB0000271b CNR2. Conditions: at 1 µM.
Experiment [3] concerns the target BMP-2-inducible protein kinase (Homo sapiens) (UniProt Q9NSY1). Description: Selectivity interaction (Kinase panel (DSF assay)) EUB0001558a BMP2K. Background: DSF heats the sample and reads unfolding from a dye or from intrinsic fluorescence.
In experiment [4] the target is T2, Testis-specific serine/threonine-protein kinase 2 (Homo sapiens) (UniProt Q96PF2).
T2 sequence (whole entry): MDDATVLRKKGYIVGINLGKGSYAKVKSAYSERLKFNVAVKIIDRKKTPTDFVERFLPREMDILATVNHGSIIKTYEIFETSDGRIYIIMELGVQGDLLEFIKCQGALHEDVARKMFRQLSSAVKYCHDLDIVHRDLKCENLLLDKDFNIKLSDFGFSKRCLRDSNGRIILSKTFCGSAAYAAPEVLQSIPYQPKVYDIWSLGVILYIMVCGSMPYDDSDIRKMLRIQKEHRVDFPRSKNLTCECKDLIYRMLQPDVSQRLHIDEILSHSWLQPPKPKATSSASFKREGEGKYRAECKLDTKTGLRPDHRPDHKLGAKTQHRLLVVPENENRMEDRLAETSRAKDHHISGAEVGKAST
Nature of the experiment: Selectivity interaction (Kinase screening (Nanosyn)) EUB0000604a TSSK2.

Experiment [5] deals with T3, Mitogen-activated protein kinase kinase kinase 19 (Homo sapiens) (UniProt Q56UN5).
T3 sequence (whole entry): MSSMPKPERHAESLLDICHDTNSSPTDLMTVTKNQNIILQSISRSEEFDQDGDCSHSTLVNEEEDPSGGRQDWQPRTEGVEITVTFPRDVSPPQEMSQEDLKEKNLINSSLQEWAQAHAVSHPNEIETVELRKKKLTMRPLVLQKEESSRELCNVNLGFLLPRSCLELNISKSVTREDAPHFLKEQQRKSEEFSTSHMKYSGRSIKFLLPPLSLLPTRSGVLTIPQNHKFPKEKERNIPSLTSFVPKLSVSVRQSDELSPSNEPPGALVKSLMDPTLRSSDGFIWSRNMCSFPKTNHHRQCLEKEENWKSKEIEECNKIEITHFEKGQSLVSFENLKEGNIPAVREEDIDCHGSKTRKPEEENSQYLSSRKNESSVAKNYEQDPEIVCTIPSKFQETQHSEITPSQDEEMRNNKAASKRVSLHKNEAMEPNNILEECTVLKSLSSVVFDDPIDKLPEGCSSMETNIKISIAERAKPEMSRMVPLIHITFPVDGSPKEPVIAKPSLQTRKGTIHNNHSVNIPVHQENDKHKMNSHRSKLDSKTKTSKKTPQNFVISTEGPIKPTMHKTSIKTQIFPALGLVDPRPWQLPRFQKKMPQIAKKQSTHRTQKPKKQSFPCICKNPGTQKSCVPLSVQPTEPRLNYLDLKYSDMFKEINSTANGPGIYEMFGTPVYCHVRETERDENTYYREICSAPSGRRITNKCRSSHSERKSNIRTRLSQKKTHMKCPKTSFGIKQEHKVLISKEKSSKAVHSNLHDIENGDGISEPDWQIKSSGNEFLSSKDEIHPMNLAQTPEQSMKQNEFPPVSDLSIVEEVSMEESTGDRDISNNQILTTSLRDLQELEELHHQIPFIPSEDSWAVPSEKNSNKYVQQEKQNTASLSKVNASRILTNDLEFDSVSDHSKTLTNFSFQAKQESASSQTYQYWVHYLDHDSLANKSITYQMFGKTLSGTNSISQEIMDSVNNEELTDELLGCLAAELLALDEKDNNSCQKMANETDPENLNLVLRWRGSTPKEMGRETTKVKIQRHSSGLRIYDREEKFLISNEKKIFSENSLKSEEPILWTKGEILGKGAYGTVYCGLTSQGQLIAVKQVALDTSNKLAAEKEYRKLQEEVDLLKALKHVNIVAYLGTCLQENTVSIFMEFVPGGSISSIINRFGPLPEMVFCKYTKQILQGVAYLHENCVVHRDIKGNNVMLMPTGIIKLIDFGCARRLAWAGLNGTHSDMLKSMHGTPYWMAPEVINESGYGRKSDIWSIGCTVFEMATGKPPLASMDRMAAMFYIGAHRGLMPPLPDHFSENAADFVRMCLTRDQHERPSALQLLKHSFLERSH
Description: Selectivity interaction (KinomeScan (DiscoverX)) EUB0001049a MAP3K19. The conditions noted are these: at 1 µM.

Sequence of BMP-2-inducible protein kinase (Homo sapiens) (Q9NSY1 whole entry, looked up): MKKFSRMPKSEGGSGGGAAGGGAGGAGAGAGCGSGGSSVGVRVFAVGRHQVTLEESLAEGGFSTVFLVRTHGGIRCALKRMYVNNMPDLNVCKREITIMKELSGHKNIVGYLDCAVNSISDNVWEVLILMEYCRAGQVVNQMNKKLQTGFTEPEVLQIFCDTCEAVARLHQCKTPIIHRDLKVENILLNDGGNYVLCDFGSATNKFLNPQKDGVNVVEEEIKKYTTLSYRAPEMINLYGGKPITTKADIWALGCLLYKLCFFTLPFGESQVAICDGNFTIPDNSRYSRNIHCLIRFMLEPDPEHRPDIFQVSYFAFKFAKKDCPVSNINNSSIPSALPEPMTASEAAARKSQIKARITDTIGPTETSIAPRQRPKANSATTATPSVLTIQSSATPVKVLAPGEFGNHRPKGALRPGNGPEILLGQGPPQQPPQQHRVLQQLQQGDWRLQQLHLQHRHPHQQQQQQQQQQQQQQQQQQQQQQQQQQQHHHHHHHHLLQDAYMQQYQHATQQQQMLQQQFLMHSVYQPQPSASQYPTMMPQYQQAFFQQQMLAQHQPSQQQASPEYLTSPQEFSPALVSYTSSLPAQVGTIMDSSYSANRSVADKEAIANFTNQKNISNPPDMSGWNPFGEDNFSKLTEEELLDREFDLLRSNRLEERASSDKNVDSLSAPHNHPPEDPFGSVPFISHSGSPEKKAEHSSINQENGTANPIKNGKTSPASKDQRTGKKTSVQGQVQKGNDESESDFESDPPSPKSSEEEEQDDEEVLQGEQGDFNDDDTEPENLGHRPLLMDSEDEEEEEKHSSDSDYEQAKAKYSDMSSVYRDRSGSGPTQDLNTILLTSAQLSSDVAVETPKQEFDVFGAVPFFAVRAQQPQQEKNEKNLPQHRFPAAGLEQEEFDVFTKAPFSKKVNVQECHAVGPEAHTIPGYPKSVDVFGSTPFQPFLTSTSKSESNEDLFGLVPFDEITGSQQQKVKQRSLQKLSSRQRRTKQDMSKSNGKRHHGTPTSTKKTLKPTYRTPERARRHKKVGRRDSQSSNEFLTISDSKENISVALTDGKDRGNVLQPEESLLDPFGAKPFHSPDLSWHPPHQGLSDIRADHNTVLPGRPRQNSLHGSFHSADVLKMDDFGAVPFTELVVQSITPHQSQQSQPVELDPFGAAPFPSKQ
Sequence of Cannabinoid receptor 2 (Homo sapiens) (P34972 whole entry): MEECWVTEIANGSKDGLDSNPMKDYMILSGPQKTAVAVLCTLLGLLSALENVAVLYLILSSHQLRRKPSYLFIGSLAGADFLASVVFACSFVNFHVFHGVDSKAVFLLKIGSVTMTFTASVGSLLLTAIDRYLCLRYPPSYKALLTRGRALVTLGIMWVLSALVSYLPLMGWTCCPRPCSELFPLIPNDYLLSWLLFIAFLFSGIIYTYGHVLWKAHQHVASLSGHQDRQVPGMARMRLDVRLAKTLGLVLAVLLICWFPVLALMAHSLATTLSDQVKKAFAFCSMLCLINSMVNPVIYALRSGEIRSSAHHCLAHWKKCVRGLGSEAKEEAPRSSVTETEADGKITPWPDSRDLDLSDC

Turning to `Cn1cc(Nc2nccc(N3CC4CCC(C3)N4C(=O)[C@@H]3CC3(F)F)n2)cn1`, in experiment [1], the % of inhibition is 64%.

Take `Cc1cc(C)cc([C@@H]2c3cc(C)ccc3NC(=O)CN2C(=O)c2ccc(Br)s2)c1`: in experiment [2], the % of inhibition was -19%.

`CC(C)(O)[C@H](F)CN1Cc2cc(NC(=O)c3cnn4cccnc34)c(N3CCOCC3)cc2C1=O` yielded a dTM in experiment [3] of 8.7 K.

Take `Cc1cnc(Nc2ccc(F)cc2Cl)nc1-c1c[nH]c(C(=O)N[C@H](CO)c2cccc(Cl)c2)c1`: the % of inhibition in experiment [4] was 3%.

Regarding `COc1cc(Nc2nc(C)cc(-c3cnn4nc(OC)ccc34)n2)cc(C(F)(F)F)c1`, the % of control in experiment [5] was 75%.
